Data as given in US20140005126A1, “SCAFFOLD PEPTIDES” (ISOGENICA LTD, priority 2010, published 2014).
pKd: −log10 of the molar value. Where a SMILES comes first, the peptide text is derived from it. Bridges are numbered along the chain shown (N, C = ends). The star is where a group is joined. Biotin = O=C1N[C@H]2[C@H](CS[C@H]2CCCCC(=O)*)N1

Legend:
VEGFR2-Fc fusion = target: T1, VEGFR2-Fc fusion (Homo sapiens, UniProt P35968); assay: Real time binding assay by biolayer interferometry (Octet Red), steady state analysis
T1 construct: His tag (only implied: capture on TALON beads, detection with penta His-HRP); purchased R&D Systems
T1 sequence (P35968 with tags, fused parts or gaps): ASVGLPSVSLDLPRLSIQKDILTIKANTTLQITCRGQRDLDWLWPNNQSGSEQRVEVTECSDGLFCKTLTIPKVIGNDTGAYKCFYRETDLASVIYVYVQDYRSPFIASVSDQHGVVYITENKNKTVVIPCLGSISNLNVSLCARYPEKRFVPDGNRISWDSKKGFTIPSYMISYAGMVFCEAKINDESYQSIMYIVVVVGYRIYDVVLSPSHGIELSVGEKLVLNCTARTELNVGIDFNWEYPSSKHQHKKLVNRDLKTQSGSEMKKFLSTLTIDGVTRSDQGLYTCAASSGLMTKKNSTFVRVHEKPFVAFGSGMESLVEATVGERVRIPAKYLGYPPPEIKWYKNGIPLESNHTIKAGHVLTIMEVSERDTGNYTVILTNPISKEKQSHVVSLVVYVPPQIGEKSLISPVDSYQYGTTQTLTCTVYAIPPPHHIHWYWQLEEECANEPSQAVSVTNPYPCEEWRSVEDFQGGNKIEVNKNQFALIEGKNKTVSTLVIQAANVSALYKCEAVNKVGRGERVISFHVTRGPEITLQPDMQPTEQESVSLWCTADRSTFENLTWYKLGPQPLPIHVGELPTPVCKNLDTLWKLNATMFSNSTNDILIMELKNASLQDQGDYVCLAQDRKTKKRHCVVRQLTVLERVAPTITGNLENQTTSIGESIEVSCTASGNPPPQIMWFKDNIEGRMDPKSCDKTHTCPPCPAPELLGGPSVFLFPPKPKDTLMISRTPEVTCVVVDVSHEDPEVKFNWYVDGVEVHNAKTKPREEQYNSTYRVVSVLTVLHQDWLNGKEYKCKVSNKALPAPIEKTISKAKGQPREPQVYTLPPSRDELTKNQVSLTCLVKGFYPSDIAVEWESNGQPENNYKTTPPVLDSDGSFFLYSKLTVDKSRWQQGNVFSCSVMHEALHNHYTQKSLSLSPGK
Experimental: Alternatively, real-time binding assays between a chemically synthesised WW domain and ligand may be performed using biolayer interferometry with an Octet Red system (Fortebio, Menlo Park, Calif.). Biotinylated WW domain is immobilised to streptavidin biosensors (Fortebio) at a concentration of 50 ng/μl in PBS. Association curves are then detected by incubating WW domain-coated sensors with different concentrations of ligand (e.g. 1 to 100 nM in PBS), and dissociations detected by incubating the sensors in PBS. The dissociation constant for WW domain binding can be determined by steady state analysis.
Real-time binding assays between the peptides and VEGFR2-Fc fusion were performed using biolayer interferometry with an Octet Red system (Fortebio, Menlo Park, Calif.). WW peptides were immobilised on streptavidin biosensors (Fortebio) at a concentration of 2 μg/ml in kinetic buffer. Association curves were then detected by incubating the immobilised peptide with streptavidin-HRP (1 to 100 nM in kinetic buffer), and dissociations were detected by incubating the sensors in kinetic buffer.

[1] = Far-UV CD analysis at different temperatures; assay type: physicochemical; details: 0.2 mg/ml peptide
Experimental: Peptides were resuspended in Molecular Biology Grade water or 10 mM sodium phosphate, pH 7, at a concentration of 200 μM to 1.4 mM. Far-UV scans were measured on an Aviv Model 410 spectrometer measuring at 0.5 nm intervals with a 1 sec averaging time, between 190 and 260 nm using 0.2 mg/ml peptide and a 1 nm bandwidth. Three scans were taken in total at each temperature and the results averaged. The CD scans were plotted using Aviv model 4.10 software, and the data were converted to molar ellipticity (M^−1 cm^−1). […] This far-UV spectrum is characteristic of other small structurally characterised β-sheet structures (Koepf et al. 1999, Protein Science, 8, 841-853; see FIG. 15).

Plasma stability assay = assay type: in vitro ADME; details: mouse, 250 μM peptide, 37° C., HPLC area, one phase exponential decay
Experimental: Peptides were resuspended in Molecular Biology Grade water at a concentration of 3 mM. The WW-B1 peptide was added to 300 μl mouse plasma (Harlan) or PBS (control) to a final concentration of 250 μM (2 samples). The samples were incubated at 37° C. 40 μl aliquots were removed from sample A at 0, 12, 14, 16, 18, 20 and 22 hr and from sample B at 0, 2, 4, 6, 8 and 10 hr. To purify each aliquot, double the volume of 100% ethanol (80 μl) was added and incubated at −20° C. for a few hours or overnight. The samples were centrifuged and 80 μl supernatant recovered. 40 μl water with 0.1% TFA was added to each sample and 100 μl was injected onto a SunFire C18 HPLC column. Buffer A (0.1% TFA in Water) was run through the column followed by 10-50% Buffer B (0.1% TFA, 5% water in 95% acetonitrile) over 20 min. The fractions from the column were collected and analysed using an AXIMA mass spectrometer.

[2] = target: T2, binding of VEGFR2 to VEGF (Homo sapiens, UniProt P35968); assay: Competition ELISA: binding of VEGFR2 to VEGF-A coated wells in presence of WW domain peptide
T2 construct: His tag (only implied by detection with penta His-HRP); purchased R&D Systems
T2 sequence (P35968 with tags, fused parts or gaps): as above
Experimental: A competition assay was carried out in which binding of VEGFR2 to VEGF-A (VEGF) was competed by the presence of varying amounts of the selected modified WW domain peptide.
50 ng human VEGF (R&D Systems, Abingdon, UK) 1 μg/ml in PBS was coated per well onto a Maxisorp plate at 37° C. for 140 minutes. The wells were then blocked with 100 μl PBS containing 2% BSA for 55 minutes at room temperature. 1.25 ng VEGFR2 was preincubated with WW-B1 fused to maltose binding protein (MBP) in 50 μl PBS for 45 minutes at room temperature. The activity of the WW-B1 peptide was tested at serial dilutions from 10 μM to 156.25 nM. 50 μl 4% BSA in PBS was added to the preincubated VEGFR2 with WW-B1-MBP and the whole mixture was then added to the VEGF coated ELISA plate and incubated at room temperature for 55 minutes. The plate was then washed with 3 washes in PBS-Tween and 2 washes in PBS. Next 50 μl/well penta His-HRP (QIAgen, diluted 1:500 in 2% BSA in PBS) was added and the mixture incubated at room temperature for 55 minutes, before washing as before. ELISA signals were detected using SureBlue TMB peroxidase substrate (Insight biotechnology, Middlesex, UK) at 450 nm.
As a control, the above process was repeated with wild-type Pin1 WW domain peptide replacing WW-B1. The results are illustrated in FIG. 6.

Compound | pKd (VEGFR2-Fc fusion; peptide on streptavidin biosensors, 2 μg/ml in kinetic buffer, steady state analysis (Example 4), read-out: dissociation constant / affinity for VEGFR2) | binding affinity to VEGFR2 compared with non-cyclised WW-B1 (VEGFR2-Fc fusion; tested as set out in Example 2) | structure after heating to 95° C. and cooling to 25° C. [1] | CD peak at 227-231 nm at 95° C. (folding state) [1] | half-life at 250 μM (Plasma stability assay) | binding affinity for VEGFR2 (concluded from competition assay) ([2]; control replacing WW-B1) | effect on the binding of VEGFR2 to VEGF ([2]; control replacing WW-B1 in the competition ELISA)
CC[C@H](C)[C@@H]1NC(=O)[C@H](CC(=O)O)NC(=O)[C@H](CC(N)=O)NC(=O)[C@H](C(C)C)NC(=O)[C@H](Cc2ccc(O)cc2)NC(=O)[C@H](CC(C)C)NC(=O)[C@H](C(C)C)NC(=O)[C@H](CCCNC(=N)N)NC(=O)CNC(=O)[C@@H]2CCCN2C(=O)[C@H](CO)NC(=O)[C@H](CO)NC(=O)[C@H](Cc2c[nH]c3ccccc23)NC(=O)[C@H](CCSC)NC(=O)[C@H](CCCCN)NC(=O)[C@H](Cc2ccc(O)cc2)NC(=O)[C@H](Cc2c[nH]c3ccccc23)NC(=O)CNC(=O)[C@@H]2CCCN2C(=O)[C@@H]2CCCN2C(=O)[C@H](CC(C)C)NC(=O)[C@@H](NC(=O)[C@H](CCC(=O)O)NC(=O)[C@H](CCC(=O)O)NC(=O)[C@H](CC(=O)O)NC(=O)CCCC[C@@H]2SC[C@@H]3NC(=O)N[C@@H]32)CCCCNC(=O)CC[C@@H](C(=O)NCC(N)=O)NC(=O)[C@@H]2CCCN2C(=O)[C@H](CCCNC(=N)N)NC(=O)[C@H](CCC(=O)O)NC(=O)[C@H](Cc2c[nH]c3ccccc23)NC(=O)[C@H](CCCNC(=N)N)NC(=O)[C@H](Cc2c[nH]cn2)NC(=O)[C@H](C)NC(=O)[C@H](Cc2c[nH]cn2)NC(=O)[C@H]([C@@H](C)O)NC1=O [cyclised WW-B1] (Biotin-DEEKLPPGWYKMWSSPGRVLYVNDITHAHRWERPEG-NH2; lactam 4-35) | 7.51 | comparable activity | able to reform its structure | unfolding | – | – | –
CC[C@H](C)[C@H](NC(=O)[C@H](CC(=O)O)NC(=O)[C@H](CC(N)=O)NC(=O)[C@@H](NC(=O)[C@H](Cc1ccc(O)cc1)NC(=O)[C@H](CC(C)C)NC(=O)[C@@H](NC(=O)[C@H](CCCNC(=N)N)NC(=O)CNC(=O)[C@@H]1CCCN1C(=O)[C@H](CO)NC(=O)[C@H](CO)NC(=O)[C@H](Cc1c[nH]c2ccccc12)NC(=O)[C@H](CCSC)NC(=O)[C@H](CCCCN)NC(=O)[C@H](Cc1ccc(O)cc1)NC(=O)[C@H](Cc1c[nH]c2ccccc12)NC(=O)CNC(=O)[C@@H]1CCCN1C(=O)[C@@H]1CCCN1C(=O)[C@H](CC(C)C)NC(=O)[C@H](CCCCN)NC(=O)[C@H](CCC(=O)O)NC(=O)[C@H](CCC(=O)O)NC(=O)[C@H](CC(=O)O)NC(=O)[C@H](C)NC(=O)[C@H](CCSC)NC(=O)CCCC[C@@H]1SC[C@@H]2NC(=O)N[C@@H]21)C(C)C)C(C)C)C(=O)N[C@H](C(=O)N[C@@H](Cc1c[nH]cn1)C(=O)N[C@@H](C)C(=O)N[C@@H](Cc1c[nH]cn1)C(=O)N[C@@H](CCCNC(=N)N)C(=O)N[C@@H](Cc1c[nH]c2ccccc12)C(=O)N[C@@H](CCC(=O)O)C(=O)N[C@@H](CCCNC(=N)N)C(=O)N1CCC[C@H]1C(=O)N[C@@H](CO)C(=O)NCC(N)=O)[C@@H](C)O [WW-B1] (Biotin-MADEEKLPPGWYKMWSSPGRVLYVNDITHAHRWERPSG-NH2; N-terminus and C-terminus assumed) | – | – | able to reform its structure | unfolding | 6.2 h | – | –
MADEEKLPPGWEKRMSRSSGRVYYFNHITNASQWERPSG [wild-type Pin1 WW domain, peptide fragment of the human Pin1 protein, used as control] | – | – | – | – | – | negligible | essentially no effect
